Experimental data taken from patent US10363251B2, “(+)-morphinans as antagonists of toll-like receptor 9 and therapeutic uses thereof” (Mallinckrodt LLC, priority 2009, dated 2019).
“Also recorded” adds a separate entry of the source.

Tests used:
[1] = test system: chronic constriction injury (CCI) neuropathic pain model; test: Reversal of allodynia (von Frey) in CCI rats, 4 days of dosing, Example 4; assay type: in vivo, rat; conditions: i.p. once a day for 4 days from day 14; tested 3 hrs after dosing; ultra low to high dose; vs saline
Description: Allodynia was induced in a group of (male, Sprague-Dawley) rats essentially as described above in Example 3. Prior to surgery, animals were tested to establish their baseline von Frey scores. Any animal with a Log absolute von Frey score lower than 4.65 on either leg was excluded from the study. CCI surgery was performed on the left sciatic nerve as detailed above. On days 4 and 14 post-surgery, the animals were tested using the von Frey test of mechanical allodynia to ensure that allodynia was established.
Beginning at about day 14 post-surgery, the animals were dosed once a day for 4 days. Compounds II-25, II-93, II-62, and III-2 were tested. All drugs were administered intraperitoneally (i.p.). Allodynia was tested prior to and again 3 hrs after each dosing. Drug administration and testing was done blindly. After the 4th day of dosing, the animals were sacrificed, cardiac perfusion was performed, and spinal cords were removed and stored for further analysis.
All data were analyzed using 2-way ANOVA's with Bonferroni's post hoc test compared to saline unless otherwise stated. Area under curve (AUC) was calculated using Graphpad Prism and comparisons were made using 1-way ANOVA with Dunnet's post hoc test.

[2] = test system: TLR9; test: IL-1β up-regulation in peritoneal macrophages by TLR9 agonist ODN2395; assay type: cell-based
Source text: (§1) TLR9 signalling involves activation of NF-κB and IRF downstream pathways. The (+)-morphinan inhibited both of these pathways following activation of TLR9 (but not activation of TLR4 or other receptors). The type C TLR9 agonist, ODN2395, and the TL4 agonist, LPS, both induce up-regulation of IL-1β in peritoneal macrophages via activation of NF-κB.

[3] = test system: hepatic IR injury in steatotic livers; test: IR injury in high fat diet (HFD) steatotic liver model; assay type: in vivo, mouse
Source text: In addition to the scarcity of liver donations, many of the donor livers have a significant degree of steatosis which is known to increase IR injury. Thus, many otherwise healthy, but steatotic, livers are rejected for transplantation. If a drug can be shown to reduce IR injury in steatotic livers it would allow use of steatotic livers for transplantation and increase the total number of liver transplants that could be performed. To test this, mice were placed on a high fat diet (HFD) for 12 weeks to induce hepatic steatosis, which was followed by IR injury. For this, mice were subjected to hepatic ischemia by occluding the vasculature supplying the left and median lobes (ischemic lobes) of the liver by a microvascular clamp. After 1 hour of ischemia, the blood supply was resumed (reperfusion). Some animals were sacrificed after 3 hour of reperfusion, and others after 12 hours or reperfusion. The experimental group received Cmpd II-78 at a dose of 80 mg/kg given intraperitoneally 1 hour prior to starting ischemia. Cellular and molecular responses were assessed essentially as described above in Example 9.

[4] = test system: cytoplasmic DNA receptor AIM2; test: IFN-β up-regulation in plasmacytoid dendritic cells by poly (dA:dT); assay type: cell-based
Source text: as §1

[5] = target: T1, TLR9 (Homo sapiens, UniProt Q9NR96); test: TLR9 screening of (+)-morphinan library, SEAP reporter in HEK293 cells expressing TLR9; assay type: cell-based; conditions: activator ODN2006; for OD 650 nm (mean ± sd): control (no activator) 0.14, activator 1.42 OD
T1 construct: expressed in transfected cells; host or cells: HEK293
T1 sequence (Q9NR96 26-1032): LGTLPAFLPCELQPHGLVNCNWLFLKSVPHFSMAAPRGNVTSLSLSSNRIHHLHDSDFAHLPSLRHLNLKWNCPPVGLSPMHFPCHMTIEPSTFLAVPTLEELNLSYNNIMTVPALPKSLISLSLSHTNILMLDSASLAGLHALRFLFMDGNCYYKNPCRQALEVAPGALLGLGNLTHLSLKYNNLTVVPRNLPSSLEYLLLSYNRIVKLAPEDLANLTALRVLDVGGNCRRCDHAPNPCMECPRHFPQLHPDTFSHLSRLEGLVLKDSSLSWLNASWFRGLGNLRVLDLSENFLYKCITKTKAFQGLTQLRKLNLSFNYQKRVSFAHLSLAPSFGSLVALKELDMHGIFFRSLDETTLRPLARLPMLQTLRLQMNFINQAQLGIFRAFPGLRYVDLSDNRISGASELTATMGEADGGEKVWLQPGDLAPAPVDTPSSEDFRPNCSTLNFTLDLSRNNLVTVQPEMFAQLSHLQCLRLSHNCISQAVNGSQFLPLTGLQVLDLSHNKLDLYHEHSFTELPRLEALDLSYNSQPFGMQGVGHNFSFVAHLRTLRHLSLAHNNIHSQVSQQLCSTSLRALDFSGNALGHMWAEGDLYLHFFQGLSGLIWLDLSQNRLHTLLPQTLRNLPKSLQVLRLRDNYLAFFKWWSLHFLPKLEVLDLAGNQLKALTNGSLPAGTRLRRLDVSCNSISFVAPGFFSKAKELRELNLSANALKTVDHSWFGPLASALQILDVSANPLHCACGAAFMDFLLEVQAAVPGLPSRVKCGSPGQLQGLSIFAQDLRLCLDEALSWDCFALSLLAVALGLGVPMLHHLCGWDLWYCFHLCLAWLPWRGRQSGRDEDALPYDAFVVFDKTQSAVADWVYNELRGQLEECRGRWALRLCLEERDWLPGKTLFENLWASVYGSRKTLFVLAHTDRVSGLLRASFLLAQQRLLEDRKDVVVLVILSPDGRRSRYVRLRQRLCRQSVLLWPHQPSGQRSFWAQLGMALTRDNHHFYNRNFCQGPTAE
How it was run: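 HEK293 cells expressing TLR9 with an NF-κB-inducible SEAP reporter were preincubated with compound at 10 μM and 100 nM for 30 min at 37 °C, then stimulated with ODN2006. SEAP was read as OD 650 nm after 16-20 h, in triplicate.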

Compound	Reversal of allodynia (von Frey) [1]	IL-1β mRNA up-regulation (NF-κB pathway) [2]	IR-induced activation of MAP kinases (western blotting), steatotic livers ([3]; HFD)	IR-induced cleavage and activation of TLR9 (western blotting), steatotic livers ([3]; HFD)	Histological Suzuki score (hepatic IR injury), steatotic livers ([3]; HFD 12 weeks, 80 mg/kg ip 1 hour prior to ischemia, 3 and 12 hours of reperfusion)	IR-induced serum ALT levels, steatotic livers ([3]; HFD, 80 mg/kg ip, 3 and 12 hours of reperfusion)	Anti-inflammatory molecule IL-1Ra mRNA, steatotic livers ([3]; HFD, 12 hours of reperfusion)	IR-induced pro-inflammatory cytokines (IL-1β, MCP-1, NLPR3 mRNA), steatotic livers ([3]; HFD, 12 hours of reperfusion)	IFN-β up-regulation [4]	OD 650 nm (mean ± sd) ([5]; 100 nM)	OD 650 nm (mean ± sd) ([5]; 10 μM)	inhibition at 0.1 µM ([5]; HEK293, read-out: % Inhibition (mean), 100 nM)	inhibition at 10 µM ([5]; HEK293, read-out: % Inhibition (mean), 10 μM)
C=CCN1CC[C@]23c4c5ccc(O)c4O[C@H]2C(=O)CC[C@]3(O)[C@H]1C5 [(+)-Naloxone, (+)-naloxone]	not effective at reversing allodynia	–	–	–	–	–	–	–	–	–	–	–	–
CN[C@@H]1CC[C@]2(O)[C@@H]3Cc4ccc(O)c5c4[C@]2(CCN3CC2CC2)[C@@H]1O5 [II-78]	–	response was inhibited; also recorded: reduced both NFκB- and IRF-dependent pathways downstream of TLR9	reduction of IR-induced activation of MAP kinases	reduction of IR-induced cleavage and activation of LTR9	reduced hepatic ischemic reperfusion (IR) injury in steatotic livers	reduced IR-induced serum alanine transaminase (ALT) levels in steatotic livers	increased an anti-inflammatory molecule	reduced IR-induced pro-inflammatory cytokines	this activation was not blocked	0.14 ± 0.02 OD	0.11 ± 0.01 OD	90%	92%
